SMILES strings stand for the structures. Counter-ions that a name gives are not always drawn.

The subject of this experiment is GT-1a pRLuc H771b 75 S/I subgenomic replicon cell line. Nature of the experiment: HCV GT-1a replicon luciferase reporter assay. The format is cell-based. The following applies: Hepatitis C virus, GT1A, 72 h, read-out: GT-1a (IC50) (nM). From the text: Determination of compounds HCV GT1b inhibitory replicon activity using the replicon luciferase reporter assay
The 2209-23 cell line was developed at Roche by stable transfection of the hepatoma cell line Huh-7 with a GT-1b Con1 subgenomic bicistronic replicon as previously described. Subgenomic replicon cell line was established in cured Huh7 cells, obtained from R. Bartenschlager (J. Virol. 2003 March; 77 (5):3007-19) The GT-1a H77 subgenomic replicon vector pRLuc H771b 75 S/I, was created by replacing the non structural region of the GT-1b Con1 subgenomic replicon by the one of the H77 strain, except for the first 75 amino acids of the NS3 protein that are from GT-1b Con1 strain. (J. Virol. 2001 77:5352-59) The GT-1a pRLuc H771b 75 S/I subgenomic replicon cell line was established in cured Huh7 cells, obtained from R. Bartenschlager. (J. Virol. 2003 March; 77 (5):3007-19)
All the subgenomic replicon cell lines were cultured in Dulbecco's Modified Eagle Medium (DMEM-Glutamax™-I; Invitrogen Cat #10569-010). The medium was supplemented with 10% Fetal Bovine Serum (Invitrogen Cat #10082-147), 1% penicillin/streptomycin (Mediatech Cat #30-002-CI) and 500 μg/ml of G418 (Mediatech Cat #30-234-CI). Cells were maintained at 37° C. in a humidified 5% CO2 atmosphere.
2209-23 cells were plated at a cell density of 5000 cells per well in 96 well plates (Becton Dickinson, Cat #35 3296). Cells were plated in 90 μl of Dulbecco's Modified Eagle Medium (DMEM-Glutamax™-I), (Invitrogen Cat #10569-010) medium was supplemented with 5% Fetal Bovine Serum (Invitrogen Cat #10082-147), 1% penicillin/streptomycin (Mediatech Cat #30-002-CI). The pRluc H771b 75 S/I cells were plated in 96-well plate at 3000 cells/well in DMEM-Glutamax™-I containing 5% FBS and 1% penicillin/streptomycin in 90 μl final volume. Cells were allowed to equilibrate for 24 hours at 37° C. and 5% CO2 at which time compounds were added. Compounds (or medium as a control) were added 24 hours post-plating in 3 fold dilutions at a final DMSO concentration of 1% in 10 ul volume. Renilla luciferase reporter signal was read 72 hours after addition of compounds using the Renilla Luciferase Assay System (Promega, cat #E2820). EC50 values were defined as the compound concentration at which a 50% reduction in the levels of renilla luciferase reporter was observed as compared to control samples in the absence of compound and was determined by non-linear fitting of compound dose-response data. The EC50 was approximated if maximum percentage inhibition was less than 90% and more than 70%.
In general terms: Replicon systems follow genome replication, usually without infectious particles.
Take `COC(=O)NC(C(=O)N1CCOC[C@H]1c1ncc(-c2ccc(-c3ccc(-c4cnc([C@@H]5Cc6cccc7c6N5C(=O)[C@@H](NC(=O)OC)CC7)[nH]4)cc3)cc2)[nH]1)c1ccccc1` (stereo in doubt) [Compound I-63, {(2S,5S)-2-[5-(4′-{2-[(R)-4-((S)-2-Methoxycarbonylamino-2-phenyl-acetyl)-morpholin-3-yl]-3H-imidazol-4-yl}-biphenyl-4-yl)-1H-imidazol-2-yl]-4-oxo-1,2,4,5,6,7-hexahydro-azepino[3,2,1-hi]indol-5-yl}-carbamic acid methyl ester]: the half-maximal inhibitory concentration (IC50) (as a rule, the concentration at which inhibition is half-maximal) is 7.3 nM.

Take `COC(=O)N[C@H]1CCc2cccc3c2N(C1=O)[C@H](c1ncc(-c2ccc(-c4ccc(-c5cnc([C@@H]6C[C@H](F)CN6C(=O)[C@@H](NC(=O)OC)C(C)C)[nH]5)cc4)cc2)[nH]1)C3` [Compound I-1, {(2S,5S)-2-[5-(4′-{2-[(2S,4S)-4-Fluoro-1-((S)-2-methoxycarbonylamino-3-methyl-butyryl)-pyrrolidin-2-yl]-3H-imidazol-4-yl}biphenyl-4-yl)-1H-imidazol-2-yl]-4-oxo-1,2,4,5,6,7-hexahydro-azepino[3,2,1-hi]indol-5-yl}-carbamic acid methyl ester]: the IC50 came out at 6.33 nM.

Consider `COC(=O)N[C@H]1CCc2cccc3c2N(C1=O)[C@H](c1ncc(-c2ccc(-c4ccc5cc(-c6cnc([C@@H]7CCCN7C(=O)[C@@H](NC(=O)OC)C(C)C)[nH]6)ccc5c4)nc2)[nH]1)C3` [Compound I-23, ((2S,5S)-2-{4-[6-(6-{2-[(S)-1-((S)-2-Methoxycarbonylamino-3-methyl-butyryl)pyrrolidin-2-yl]-3H-imidazol-4-yl}-naphthalen-2-yl)-pyridin-3-yl]-1Himidazol-2-yl}-4-oxo-1,2,4,5,6,7-hexahydro-azepino[3,2,1-hi]indol-5-yl)-carbamic acid methyl ester di-trifluoroacetic acid salt], for which the IC50 stood at 0.767 nM.

`COC(=O)N[C@H]1CCc2cccc3c2N(C1=O)[C@H](c1ncc(-c2ccc(-c4ccc(-c5cnc([C@@H]6CC7(CN6C(=O)[C@@H](NC(=O)OC)C(C)C)OCCO7)[nH]5)cc4)cc2)[nH]1)C3` [Compound I-8, {(2S,5S)-2-[5-(4′-{2-[(S)-7-((S)-2-Methoxycarbonylamino-3-methyl-butyryl)-1,4-dioxa-7-aza-spiro[4.4]non-8-yl]-3H-imidazol-4-yl}-biphenyl-4-yl)-1H-imidazol-2-yl]-4-oxo-1,2,4,5,6,7-hexahydro-azepino[3,2,1-hi]indol-5-yl}-carbamic acid methyl Ester]: the IC50 came to 2.54 nM.

For the compound `COC(=O)N[C@H]1CCc2cccc3c2N(C1=O)[C@H](c1ncc(-c2ccc(-c4ccc5cc(-c6cnc([C@@H]7C[C@H](C#N)CN7C(=O)[C@@H](NC(=O)OC)C(C)C)[nH]6)ccc5c4)cc2)[nH]1)C3` [Compound I-41, {(2S,5S)-2-{5-[4-(6-{2-[(2S,4S)-4-Cyano-1-((S)-2-methoxycarbonylamino-3-methyl-butyryl)-pyrrolidin-2-yl]-3H-imidazol-4-yl}-naphthalen-2-yl)-phenyl]-1H-imidazol-2-yl]-4-oxo-1,2,4,5,6,7-hexahydro-azepino[3,2,1-hi]indol-5-yl}-carbamic acid methyl ester], the IC50 was 2.49 nM.

Turning to `COC(=O)N[C@H]1CCc2cccc3c2N(C1=O)[C@H](c1ncc(-c2ccc(-c4ccc(-c5cnc(C6C7CC7CN6C(=O)[C@H](NC(=O)OC)c6ccccc6)[nH]5)cc4)cc2)[nH]1)C3` (stereo partly drawn) [Compound I-65, {(2S,5S)-2-[5-(4′-{2-[(S)-3-((R)-2-Methoxycarbonylamino-2-phenyl-acetyl)-3-aza-bicyclo[3.1.0]hex-2-yl]-3H-imidazol-4-yl}-biphenyl-4-yl)-1H-imidazol-2-yl]-4-oxo-1,2,4,5,6,7-hexahydro-azepino[3,2,1-hi]indol-5-yl}-carbamic acid methyl ester], the IC50 is 67.2 nM.

In the case of `COC(=O)N[C@H]1CCc2cccc3c2N(C1=O)[C@H](c1ncc(-c2ccc(-c4ccc5cc(-c6cnc([C@@H]7CCCN7C(=O)[C@@H](NC(=O)OC)C(C)C)[nH]6)ccc5n4)cc2)[nH]1)C3` [Compound I-21, ((2S,5S)-2-{4-[4-(6-{2-[(S)-1-((S)-2-Methoxycarbonylamino-3-methyl-butyryl)-pyrrolidin-2-yl]-1H-imidazol-4-yl}-quinolin-2-yl)-phenyl]-1H-imidazol-2-yl}-4-oxo-1,2,4,5,6,7-hexahydro-azepino[3,2,1-hi]indol-5-yl)-carbamic acid methyl ester trifluroacetic acid, trifluoroacetic acid salt], the IC50 came out at 0.395 nM.

In the case of `CC[C@H](C)[C@H](NC(=O)OC)C(=O)N1CC(F)(F)C[C@H]1c1ncc(-c2cnc(-c3ccc(-c4cnc([C@@H]5Cc6cccc7c6N5C(=O)[C@@H](NC(=O)OC)CC7)[nH]4)cc3)nc2)[nH]1` [Compound I-58, ((1S,2S)-1-{(S)-4,4-Difluoro-2-[5-(2-{4-[2-((2S,5S)-5-methoxycarbonylamino-4-oxo-1,2,4,5,6,7-hexahydro-azepino[3,2,1-hi]indol-2-yl)-1H-imidazol-4-yl]-phenyl}-pyrimidin-5-yl)-1H-imidazol-2-yl]-pyrrolidine-1-carbonyl}-2-methyl-butyl)-carbamic acid methyl ester], the 50% inhibitory concentration (IC50) was found to be 26.1 nM.

On to `COC(=O)N[C@H]1CCc2cccc3c2N(C1=O)[C@H](c1ncc(-c2ccc(-c4ccc(-c5cnc([C@@H]6CCCN6C(=O)[C@@H](NC(=O)OC)C(C)C)[nH]5)cc4C#N)cc2)[nH]1)C3` [Compound I-38, {(2S,5S)-2-[5-(2′-Cyano-4′-{2-[(S)-1-((S)-2-methoxycarbonylamino-3-methyl-butyryl)-pyrrolidin-2-yl]-1H-imidazol-4-yl}-biphenyl-4-yl)-1H-imidazol-2-yl]-4-oxo-1,2,4,5,6,7-hexahydro-azepino[3,2,1-hi]indol-5-yl}-carbamic acid methyl ester], for which the IC50 came to 22.4 nM.

On to `COC(=O)N[C@H]1CCc2cccc3c2N(C1=O)[C@H](c1ncc(-c2ccc(-c4ccc(-c5cnc([C@@H]6CCCN6C(=O)C6(NC(=O)OC)COC6)[nH]5)cc4)cc2)[nH]1)C3` [Compound I-47], for which the IC50 came out at 110 nM.

Turning to `COC(=O)N[C@H]1CCc2cccc3c2N(C1=O)[C@H](c1ncc(-c2cnc4cc(-c5ccc(-c6cnc([C@@H]7CCCN7C(=O)[C@@H](NC(=O)OC)C(C)C)[nH]6)cc5)ccc4c2)[nH]1)C3` [Compound I-18, ((2S,5S)-2-{5-[7-(4-{2-[(S)-1-((S)-2-Methoxycarbonylamino-3-methyl-butyryl)-pyrrolidin-2-yl]-3H-imidazol-4-yl}-phenyl)-quinolin-3-yl]-1H-imidazol-2-yl}-4-oxo-1,2,4,5,6,7-hexahydro-azepino[3,2,1-hi]indol-5-yl)-carbamic acid methyl ester trifluoacetic acid salt], the IC50 was 21.6 nM.

On to `COC(=O)N[C@H]1CCc2cccc3c2N(C1=O)[C@H](c1ncc(-c2ccc(-c4ccc5cc(-c6cnc([C@@H]7CC(F)(F)CN7C(=O)[C@@H](NC(=O)OC)C(C)C)[nH]6)ccc5c4)cc2)[nH]1)C3` [Compound I-42, {(2S,5S)-2-{5-[4-(6-{2-[(S)-4,4-Difluoro-1-((S)-2-methoxycarbonylamino-3-methyl-butyryl)-pyrrolidin-2-yl]-3H-imidazol-4-yl}-naphthalen-2-yl)-phenyl]-1H-imidazol-2-yl}-4-oxo-1,2,4,5,6,7-hexahydo-azepino[3,2,1-hi]indol-5-yl}-carbamic acid methyl ester], for which the 50% inhibitory concentration (IC50) was 1.17 nM.
